Assay results: publication PMC3561163 (PLoS Neglected Tropical Diseases, 2013)
Marks after values point to notes of the source that are not given here.

What was measured:
[1] = tested on: 14 different HLA class II molecules; type: binding, human
[2] = tested on: PBMCs from YF-17DD vaccinees; type: cell-based, human
[3] = tested on: CD4^+ depleted PBMCs from YF-17DD vaccinees; type: cell-based, human
[4] = tested on: CD8^+ T-cells isolated from HLA-A*0201 positive individuals; type: cell-based, human

Compound | Level of peptide promiscuity [1] | Total DR bound [1] | ELISPOT Max [2] | ELISPOT Min [2] | No. of responders [2] | Recognition frequency (%) (Table S1) [2] | IFN-γ SFC Average ± STDEV [3] | IFN-γ SFC Median [3] | No. of responders (CD4-depleted PBMCs) [3] | yield of cellular proliferation of the CD8^+ T-cell population expanded by aAPCs [4] | T-cell activation by 9-mers covering NS4b77–91 [2]
CC[C@H](C)[C@H](NC(=O)CNC(=O)[C@H](CCCCN)NC(=O)[C@H](CC(N)=O)NC(=O)[C@@H](NC(=O)[C@H](C)NC(=O)[C@H](C)NC(=O)[C@@H](NC(=O)[C@H](CC(C)C)NC(=O)[C@H](CC(=O)O)NC(=O)[C@H](CC(=O)O)NC(=O)[C@H](C)N)[C@@H](C)O)[C@@H](C)CC)C(=O)N[C@@H](CC(C)C)C(=O)N[C@H](C(=O)N[C@H](C(=O)O)[C@@H](C)O)C(C)C [Env337–351] | intermediate (key: low (affinity to 2 to 5 HLA class II molecules bound); intermediate (affinity to 6 to 9 HLA class II molecules bound); highly promiscuous (binding to ≥10 HLA molecules)) | 9 | 30 SFC/10^6 PBMC | 12 SFC/10^6 PBMC | 3 | 17% |  |  |  |  | 
CC[C@H](C)[C@H](NC(=O)CNC(=O)[C@H](CCCCN)NC(=O)[C@@H](N)CC(N)=O)C(=O)N[C@@H](CC(C)C)C(=O)N[C@H](C(=O)N[C@H](C(=O)N[C@H](C(=O)N[C@@H](CC(N)=O)C(=O)N1CCC[C@H]1C(=O)N[C@H](C(=O)N[C@@H](C)C(=O)N[C@@H](CO)C(=O)N[C@H](C(=O)N[C@@H](CC(N)=O)C(=O)O)[C@@H](C)O)[C@@H](C)CC)C(C)C)[C@@H](C)O)C(C)C [Env345–359] | highly promiscuous (key: low (affinity to 2 to 5 HLA class II molecules bound); intermediate (affinity to 6 to 9 HLA class II molecules bound); highly promiscuous (binding to ≥10 HLA molecules)) | 13 | 271 SFC/10^6 PBMC | 10 SFC/10^6 PBMC | 9 | 33% | 315±160 SFC (CD4-depleted PBMCs/10^6) | 287 SFC (CD4-depleted PBMCs/10^6) | 3 |  | 
CC[C@H](C)[C@H](NC(=O)[C@H](CC(C)C)NC(=O)[C@@H](NC(=O)[C@H](CCC(=O)O)NC(=O)[C@@H](N)CC(=O)O)C(C)C)C(=O)N[C@@H](CCC(=O)O)C(=O)N[C@H](C(=O)N[C@@H](CC(N)=O)C(=O)N1CCC[C@H]1C(=O)N1CCC[C@H]1C(=O)N[C@@H](Cc1ccccc1)C(=O)NCC(=O)N[C@@H](CC(=O)O)C(=O)N[C@@H](CO)C(=O)N[C@@H](Cc1ccc(O)cc1)C(=O)O)C(C)C [Env361–375] |  | 10 | 203 SFC/10^6 PBMC | 14 SFC/10^6 PBMC | 4 | 15% | 16±0 SFC (CD4-depleted PBMCs/10^6) | 16 SFC (CD4-depleted PBMCs/10^6) | 2 |  | 
CSCC[C@H](NC(=O)[C@@H](NC(=O)[C@@H](N)C(C)C)C(C)C)C(=O)N[C@H](C(=O)N[C@@H](CO)C(=O)N[C@@H](CC(C)C)C(=O)N[C@@H](C)C(=O)N[C@@H](CC(C)C)C(=O)N[C@H](C(=O)NCC(=O)N[C@@H](C)C(=O)N[C@@H](C)C(=O)N[C@@H](CC(C)C)C(=O)N[C@@H](Cc1c[nH]cn1)C(=O)N1CCC[C@H]1C(=O)O)C(C)C)[C@@H](C)O [NS2b97–111] | intermediate (key: low (affinity to 2 to 5 HLA class II molecules bound); intermediate (affinity to 6 to 9 HLA class II molecules bound); highly promiscuous (binding to ≥10 HLA molecules)) | 7 | 26 SFC/10^6 PBMC | 10 SFC/10^6 PBMC | 6 | 10% |  |  |  |  | 
CC[C@H](C)[C@H](NC(=O)[C@@H](NC(=O)[C@H](CCC(=O)O)NC(=O)CNC(=O)[C@H](CC(N)=O)NC(=O)[C@H](CCCNC(=N)N)NC(=O)[C@H](CC(N)=O)NC(=O)[C@@H](NC(=O)[C@@H](NC(=O)[C@@H]1CCCN1C(=O)[C@H](CO)NC(=O)CNC(=O)[C@H](CO)NC(=O)[C@@H](NC(=O)CN)[C@@H](C)O)[C@@H](C)CC)C(C)C)C(C)C)C(=O)O [NS3_137–151] |  | 1 | 137 SFC/10^6 PBMC | 18 SFC/10^6 PBMC | 5 | 11% |  |  | 0 |  | 
CSCC[C@H](NC(=O)[C@H](C)NC(=O)[C@H](CCSC)NC(=O)[C@@H](N)CCCNC(=N)N)C(=O)N[C@H](C(=O)N[C@@H](CC(=O)O)C(=O)N[C@H](C(=O)N[C@H](C(=O)N1CCC[C@H]1C(=O)N[C@@H](Cc1ccccc1)C(=O)NCC(=O)N[C@@H](CCC(N)=O)C(=O)N[C@@H](CCC(N)=O)C(=O)N[C@@H](CCCNC(=N)N)C(=O)N[C@H](C(=O)O)C(C)C)[C@@H](C)O)[C@@H](C)O)[C@@H](C)O [NS5_341–355] | low (key: low (affinity to 2 to 5 HLA class II molecules bound); intermediate (affinity to 6 to 9 HLA class II molecules bound); highly promiscuous (binding to ≥10 HLA molecules)) | 4 | 267 SFC/10^6 PBMC | 27 SFC/10^6 PBMC | 6 | 12% |  |  | 0 |  | 
CC(C)[C@H](NC(=O)[C@H](CCCNC(=N)N)NC(=O)[C@H](CCC(N)=O)NC(=O)[C@H](CCC(N)=O)NC(=O)CNC(=O)[C@H](Cc1ccccc1)NC(=O)[C@@H]1CCCN1C(=O)[C@@H](NC(=O)[C@@H](NC(=O)[C@H](CC(=O)O)NC(=O)[C@@H](N)[C@@H](C)O)[C@@H](C)O)[C@@H](C)O)C(=O)N[C@@H](Cc1ccccc1)C(=O)N[C@@H](CCCCN)C(=O)N[C@@H](CCC(=O)O)C(=O)N[C@@H](CCCCN)C(=O)O [NS5_345–359] | low (key: low (affinity to 2 to 5 HLA class II molecules bound); intermediate (affinity to 6 to 9 HLA class II molecules bound); highly promiscuous (binding to ≥10 HLA molecules)) | 2 | 914 SFC/10^6 PBMC | 55 SFC/10^6 PBMC | 8 | 17% | 66±71 SFC (CD4-depleted PBMCs/10^6) | 32 SFC (CD4-depleted PBMCs/10^6) | 3 |  | 
CC[C@H](C)[C@H](NC(=O)[C@H](C)NC(=O)[C@H](CCCNC(=N)N)NC(=O)[C@H](CO)NC(=O)CNC(=O)[C@H](CCCCN)NC(=O)[C@H](C)NC(=O)[C@H](CCCCN)NC(=O)CNC(=O)[C@H](Cc1ccccc1)NC(=O)[C@@H](N)CCC(=O)O)C(=O)N[C@@H](Cc1c[nH]c2ccccc12)C(=O)N[C@@H](Cc1ccc(O)cc1)C(=O)N[C@@H](CCSC)C(=O)N[C@@H](Cc1c[nH]c2ccccc12)C(=O)O [NS5_465–479] | intermediate (key: low (affinity to 2 to 5 HLA class II molecules bound); intermediate (affinity to 6 to 9 HLA class II molecules bound); highly promiscuous (binding to ≥10 HLA molecules)) | 7 | 1593 SFC/10^6 PBMC | 10 SFC/10^6 PBMC | 6 | 12% | 168±0 SFC (CD4-depleted PBMCs/10^6) | 168 SFC (CD4-depleted PBMCs/10^6) | 2 |  | 
CC[C@H](C)[C@H](NC(=O)[C@H](C)NC(=O)[C@H](CCCNC(=N)N)NC(=O)[C@H](CO)NC(=O)CNC(=O)[C@H](CCCCN)NC(=O)[C@H](C)N)C(=O)N[C@@H](Cc1c[nH]c2ccccc12)C(=O)N[C@@H](Cc1ccc(O)cc1)C(=O)N[C@@H](CCSC)C(=O)N[C@@H](Cc1c[nH]c2ccccc12)C(=O)N[C@@H](CC(C)C)C(=O)NCC(=O)N[C@@H](C)C(=O)N[C@@H](CCCNC(=N)N)C(=O)O [NS5_469–483] | highly promiscuous (key: low (affinity to 2 to 5 HLA class II molecules bound); intermediate (affinity to 6 to 9 HLA class II molecules bound); highly promiscuous (binding to ≥10 HLA molecules)) | 10 | 1828 SFC/10^6 PBMC | 13 SFC/10^6 PBMC | 8 | 17% |  |  |  |  | 
CC(C)C[C@H](NC(=O)[C@H](C)NC(=O)[C@H](CCC(=O)O)NC(=O)[C@H](Cc1ccccc1)NC(=O)[C@H](CCC(=O)O)NC(=O)[C@H](CC(C)C)NC(=O)[C@H](Cc1ccc(O)cc1)NC(=O)[C@H](CCCNC(=N)N)NC(=O)[C@H](C)NC(=O)CN)C(=O)NCC(=O)N[C@@H](Cc1ccccc1)C(=O)N[C@@H](CC(C)C)C(=O)N[C@@H](CC(N)=O)C(=O)N[C@@H](CCC(=O)O)C(=O)O [NS5_481–495] | highly promiscuous (key: low (affinity to 2 to 5 HLA class II molecules bound); intermediate (affinity to 6 to 9 HLA class II molecules bound); highly promiscuous (binding to ≥10 HLA molecules)) | 10 | 1022 SFC/10^6 PBMC | 13 SFC/10^6 PBMC | 11 | 23% | 95±0 SFC (CD4-depleted PBMCs/10^6) | 95 SFC (CD4-depleted PBMCs/10^6) | 2 |  | 
LWNGPMAVS [NS4b77–85] |  |  |  |  |  |  |  |  |  | 2×10^6 | induced the most T-cell activation
